Literature values in US8158161B2, “Methods and pharmaceutical compositions useful for treating psoriasis” (S.U.L.V.E. Ltd., priority 2005, dated 2012).

Test system: K562 cells
Details: Leoni 1997

Row | SMILES | rank among isothiocyanates tested as inhibitors of leukemic cell growth
1 | C=CCN=C=S [2-Propenyl-isothiocyanate] | most potent inhibitors
2 | S=C=NCc1ccccc1 [Benzyl-isothiocyanate] | most potent inhibitors
